The values below are quoted from earlier work in patent US20170071869A1 (Teva Pharmaceutical Industries Ltd., priority 2014, published 2017).

For data set [1], the system named is genes related to antigen presentation (NFkB pathway). The note with it: mainly via the NFkB pathway.

With `CCN(C(=O)c1c(O)c2c(Cl)cccc2n(C)c1=O)c1ccccc1` [Laquinimod], the oral bioavailability result is “high oral bioavailability”. Also, in data set [1], the “suppression of genes related to antigen presentation and corresponding inflammatory pathways” value is “induced suppression of genes related to antigen presentation”.
